# Experimental data: PubChem BioAssay (NCI)
#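 Exposure lasted 48 hours, with cells grown in 96-well plates and compounds tested at five concentrations. At the GI50, growth is halved. TGI: concentration producing complete growth inhibition.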
# Legend:
# Experiment in all cases: DTP human tumour cell line panel, 48 h
# SF-539 CNS = test system: SF-539 CNS
# OVCAR-3 ovarian = test system: OVCAR-3 ovarian
# MCF7 breast = test system: MCF7 breast
# UACC-257 melanoma = test system: UACC-257 melanoma
# BT-549 breast = test system: BT-549 breast
# MALME-3M melanoma = test system: MALME-3M melanoma
# A549 NSCLC = test system: A549 NSCLC
# MDA-MB-435 = test system: MDA-MB-435
# TK-10 renal = test system: TK-10 renal
# KM12 colon = test system: KM12 colon
# SK-MEL-2 melanoma = test system: SK-MEL-2 melanoma
# HL-60(TB) leukemia = test system: HL-60(TB) leukemia
# MOLT-4 leukemia = test system: MOLT-4 leukemia
# NCI/ADR-RES ovarian = test system: NCI/ADR-RES ovarian
# NCI-H226 lung = test system: NCI-H226 lung
# K-562 leukemia = test system: K-562 leukemia
# PC-3 prostate = test system: PC-3 prostate
# CCRF-CEM leukemia = test system: CCRF-CEM leukemia
# HCT-15 colon = test system: HCT-15 colon
# RXF 393 renal = test system: RXF 393 renal
# SF-295 CNS = test system: SF-295 CNS
# SNB-19 CNS = test system: SNB-19 CNS
# HS 578T breast = test system: HS 578T breast
# OVCAR-8 ovarian = test system: OVCAR-8 ovarian
# NCI-H522 lung = test system: NCI-H522 lung
# NCI-H460 lung = test system: NCI-H460 lung
# A498 renal = test system: A498 renal
# DU-145 prostate = test system: DU-145 prostate
# NCI-H23 lung = test system: NCI-H23 lung
# HT29 colon = test system: HT29 colon
# OVCAR-5 ovarian = test system: OVCAR-5 ovarian
# SNB-75 CNS = test system: SNB-75 CNS
# UACC-62 melanoma = test system: UACC-62 melanoma
# T-47D breast = test system: T-47D breast
# HOP-62 NSCLC = test system: HOP-62 NSCLC
# M14 melanoma = test system: M14 melanoma
# IGROV1 ovarian = test system: IGROV1 ovarian
# OVCAR-4 ovarian = test system: OVCAR-4 ovarian
# EKVX NSCLC = test system: EKVX NSCLC
# SN12C renal = test system: SN12C renal
# HCC-2998 colon = test system: HCC-2998 colon
# SK-MEL-5 melanoma = test system: SK-MEL-5 melanoma
# HCT-116 colon = test system: HCT-116 colon
# HOP-92 NSCLC = test system: HOP-92 NSCLC
# 786-0 renal = test system: 786-0 renal
# SK-MEL-28 melanoma = test system: SK-MEL-28 melanoma
# SF-268 CNS = test system: SF-268 CNS
# RPMI-8226 leukemia = test system: RPMI-8226 leukemia
# SW-620 colon = test system: SW-620 colon
# ACHN renal = test system: ACHN renal
# UO-31 renal = test system: UO-31 renal
# U251 CNS = test system: U251 CNS
# COLO 205 colon = test system: COLO 205 colon
# SR leukemia = test system: SR leukemia
# MDA-MB-231 breast = test system: MDA-MB-231 breast
# LOX IMVI melanoma = test system: LOX IMVI melanoma
# SK-OV-3 ovarian = test system: SK-OV-3 ovarian
# CAKI-1 renal = test system: CAKI-1 renal
smiles,measurement,setting,value
CCNCCCn1c2c(c3ccc(F)cc3c1=O)C(=O)c1cc(OC)cnc1-2,GI50,SF-539 CNS,320 nM
same,TGI,SF-539 CNS,1390 nM
same,GI50,OVCAR-3 ovarian,282 nM
same,TGI,OVCAR-3 ovarian,2140 nM
same,GI50,MCF7 breast,42.7 nM
same,TGI,MCF7 breast,2750 nM
same,GI50,UACC-257 melanoma,403 nM
same,TGI,UACC-257 melanoma,2160 nM
same,GI50,BT-549 breast,936 nM
same,TGI,BT-549 breast,5140 nM
same,GI50,MALME-3M melanoma,329 nM
same,TGI,MALME-3M melanoma,1440 nM
same,GI50,A549 NSCLC,64.3 nM
same,TGI,A549 NSCLC,256 nM
same,GI50,MDA-MB-435,477 nM
same,TGI,MDA-MB-435,2130 nM
same,GI50,TK-10 renal,296 nM
same,TGI,TK-10 renal,1670 nM
same,GI50,KM12 colon,259 nM
same,TGI,KM12 colon,10000 nM
same,GI50,SK-MEL-2 melanoma,1130 nM
same,TGI,SK-MEL-2 melanoma,4120 nM
same,GI50,HL-60(TB) leukemia,202 nM
same,TGI,HL-60(TB) leukemia,644 nM
same,GI50,MOLT-4 leukemia,48.5 nM
same,TGI,MOLT-4 leukemia,369 nM
same,GI50,NCI/ADR-RES ovarian,374 nM
same,TGI,NCI/ADR-RES ovarian,4890 nM
same,GI50,NCI-H226 lung,144 nM
same,TGI,NCI-H226 lung,327 nM
same,GI50,K-562 leukemia,206 nM
same,TGI,K-562 leukemia,1680 nM
same,GI50,PC-3 prostate,301 nM
same,TGI,PC-3 prostate,10300 nM
same,GI50,CCRF-CEM leukemia,164 nM
same,TGI,CCRF-CEM leukemia,1120 nM
same,GI50,HCT-15 colon,228 nM
same,TGI,HCT-15 colon,3320 nM
same,GI50,RXF 393 renal,260 nM
same,TGI,RXF 393 renal,922 nM
same,GI50,SF-295 CNS,194 nM
same,TGI,SF-295 CNS,721 nM
same,GI50,SNB-19 CNS,160 nM
same,TGI,SNB-19 CNS,1260 nM
same,GI50,HS 578T breast,1620 nM
same,TGI,HS 578T breast,13500 nM
same,GI50,OVCAR-8 ovarian,183 nM
same,TGI,OVCAR-8 ovarian,992 nM
same,GI50,NCI-H522 lung,56.2 nM
same,TGI,NCI-H522 lung,1020 nM
same,GI50,NCI-H460 lung,45.7 nM
same,TGI,NCI-H460 lung,222 nM
same,GI50,A498 renal,248 nM
same,TGI,A498 renal,1350 nM
same,GI50,DU-145 prostate,215 nM
same,TGI,DU-145 prostate,1370 nM
same,GI50,NCI-H23 lung,302 nM
same,TGI,NCI-H23 lung,1540 nM
same,GI50,HT29 colon,147 nM
same,TGI,HT29 colon,860 nM
same,GI50,OVCAR-5 ovarian,331 nM
same,TGI,OVCAR-5 ovarian,1900 nM
same,GI50,SNB-75 CNS,364 nM
same,TGI,SNB-75 CNS,5030 nM
same,GI50,UACC-62 melanoma,341 nM
same,TGI,UACC-62 melanoma,1850 nM
same,GI50,T-47D breast,145 nM
same,TGI,T-47D breast,761 nM
same,GI50,HOP-62 NSCLC,149 nM
same,TGI,HOP-62 NSCLC,472 nM
same,GI50,M14 melanoma,336 nM
same,TGI,M14 melanoma,1720 nM
same,GI50,IGROV1 ovarian,330 nM
same,TGI,IGROV1 ovarian,4490 nM
same,GI50,OVCAR-4 ovarian,460 nM
same,TGI,OVCAR-4 ovarian,11000 nM
same,GI50,EKVX NSCLC,328 nM
same,TGI,EKVX NSCLC,2780 nM
same,GI50,SN12C renal,151 nM
same,TGI,SN12C renal,763 nM
same,GI50,HCC-2998 colon,1060 nM
same,TGI,HCC-2998 colon,2500 nM
same,GI50,SK-MEL-5 melanoma,254 nM
same,TGI,SK-MEL-5 melanoma,1060 nM
same,GI50,HCT-116 colon,136 nM
same,TGI,HCT-116 colon,550 nM
same,GI50,HOP-92 NSCLC,360 nM
same,TGI,HOP-92 NSCLC,4390 nM
same,GI50,786-0 renal,195 nM
same,TGI,786-0 renal,755 nM
same,GI50,SK-MEL-28 melanoma,1230 nM
same,TGI,SK-MEL-28 melanoma,3450 nM
same,GI50,SF-268 CNS,386 nM
same,TGI,SF-268 CNS,10900 nM
same,GI50,RPMI-8226 leukemia,144 nM
same,TGI,RPMI-8226 leukemia,692 nM
same,GI50,SW-620 colon,170 nM
same,TGI,SW-620 colon,5550 nM
same,GI50,ACHN renal,127 nM
same,TGI,ACHN renal,371 nM
same,GI50,UO-31 renal,123 nM
same,TGI,UO-31 renal,568 nM
same,GI50,U251 CNS,100 nM
same,TGI,U251 CNS,506 nM
same,GI50,COLO 205 colon,68.8 nM
same,TGI,COLO 205 colon,1160 nM
same,GI50,SR leukemia,127 nM
same,TGI,SR leukemia,978 nM
same,GI50,MDA-MB-231 breast,404 nM
same,TGI,MDA-MB-231 breast,1930 nM
same,GI50,LOX IMVI melanoma,141 nM
same,TGI,LOX IMVI melanoma,319 nM
same,GI50,SK-OV-3 ovarian,221 nM
same,TGI,SK-OV-3 ovarian,752 nM
COc1cc(Nc2nc3ccccc3n3cccc23)cc(OC)c1OC,TGI,SF-539 CNS,> 100000 nM
same,TGI,OVCAR-3 ovarian,> 100000 nM
same,TGI,MCF7 breast,> 100000 nM
same,TGI,UACC-257 melanoma,> 100000 nM
same,TGI,BT-549 breast,> 100000 nM
same,TGI,MALME-3M melanoma,> 100000 nM
same,TGI,A549 NSCLC,> 100000 nM
same,TGI,MDA-MB-435,> 100000 nM
same,TGI,TK-10 renal,> 100000 nM
same,TGI,KM12 colon,> 100000 nM
same,TGI,SK-MEL-2 melanoma,> 100000 nM
same,TGI,HL-60(TB) leukemia,> 100000 nM
same,TGI,MOLT-4 leukemia,> 100000 nM
same,TGI,NCI/ADR-RES ovarian,> 100000 nM
same,TGI,CAKI-1 renal,> 100000 nM
same,TGI,K-562 leukemia,> 100000 nM
same,TGI,PC-3 prostate,> 100000 nM
same,TGI,CCRF-CEM leukemia,> 100000 nM
same,TGI,HCT-15 colon,> 100000 nM
same,TGI,RXF 393 renal,99600 nM
same,TGI,SF-295 CNS,> 100000 nM
same,TGI,SNB-19 CNS,> 100000 nM
same,TGI,HS 578T breast,> 100000 nM
same,TGI,OVCAR-8 ovarian,> 100000 nM
same,TGI,NCI-H522 lung,> 100000 nM
same,TGI,NCI-H460 lung,> 100000 nM
same,TGI,A498 renal,> 100000 nM
same,TGI,DU-145 prostate,> 100000 nM
same,TGI,NCI-H23 lung,> 100000 nM
same,TGI,HT29 colon,> 100000 nM
same,TGI,OVCAR-5 ovarian,> 100000 nM
same,TGI,UACC-62 melanoma,> 100000 nM
same,TGI,T-47D breast,821 nM
same,TGI,HOP-62 NSCLC,72900 nM
same,TGI,M14 melanoma,> 100000 nM
same,TGI,IGROV1 ovarian,> 100000 nM
same,TGI,EKVX NSCLC,> 100000 nM
same,TGI,HCC-2998 colon,> 100000 nM
same,TGI,SK-MEL-5 melanoma,> 100000 nM
same,TGI,HCT-116 colon,> 100000 nM
same,TGI,HOP-92 NSCLC,> 100000 nM
same,TGI,786-0 renal,> 100000 nM
same,TGI,SK-MEL-28 melanoma,> 100000 nM
same,TGI,SF-268 CNS,> 100000 nM
same,TGI,RPMI-8226 leukemia,> 100000 nM
same,TGI,SW-620 colon,> 100000 nM
same,TGI,ACHN renal,> 100000 nM
same,TGI,UO-31 renal,> 100000 nM
same,TGI,U251 CNS,> 100000 nM
same,TGI,COLO 205 colon,> 100000 nM
same,TGI,SR leukemia,> 100000 nM
same,TGI,MDA-MB-231 breast,> 100000 nM
same,TGI,LOX IMVI melanoma,> 100000 nM
same,TGI,SK-OV-3 ovarian,> 100000 nM
